Data published in ChEMBL document CHEMBL2163249, “Exploration of natural compounds as sources of new bifunctional scaffolds targeting cholinesterases and beta amyloid aggregation: the case of chelerythrine” (Bioorg Med Chem, 2012).

Legend:
[1] = target: Acetylcholinesterase (Electrophorus electricus) (UniProt O42275); settings: at 2 mg/mL
Description: Inhibition of electric eel AChE at 2 mg/ml by Ellman's method

[2] = target: Cholinesterase (Equus caballus) (UniProt P81908); settings: at 2 mg/mL
Sequence of Cholinesterase (Equus caballus) (P81908 whole entry): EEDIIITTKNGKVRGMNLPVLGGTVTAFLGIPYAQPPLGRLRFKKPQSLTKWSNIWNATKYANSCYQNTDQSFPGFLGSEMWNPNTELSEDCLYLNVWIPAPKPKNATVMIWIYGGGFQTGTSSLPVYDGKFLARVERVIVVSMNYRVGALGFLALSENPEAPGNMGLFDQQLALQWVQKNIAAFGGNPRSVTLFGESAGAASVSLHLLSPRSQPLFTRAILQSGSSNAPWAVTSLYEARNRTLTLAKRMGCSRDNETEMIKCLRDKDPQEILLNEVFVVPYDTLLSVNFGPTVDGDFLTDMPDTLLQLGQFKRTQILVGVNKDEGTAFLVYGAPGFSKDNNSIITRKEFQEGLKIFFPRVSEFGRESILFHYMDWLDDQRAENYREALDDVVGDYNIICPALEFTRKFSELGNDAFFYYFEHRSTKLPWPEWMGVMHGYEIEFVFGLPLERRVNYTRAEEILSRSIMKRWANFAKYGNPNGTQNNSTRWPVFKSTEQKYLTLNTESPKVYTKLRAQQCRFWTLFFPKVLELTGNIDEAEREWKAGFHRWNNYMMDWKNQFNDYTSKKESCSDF
Description: Inhibition of horse BChE at 2 mg/ml by Ellman's method

Sequence of Acetylcholinesterase (Electrophorus electricus) (O42275 24-633 limits assumed): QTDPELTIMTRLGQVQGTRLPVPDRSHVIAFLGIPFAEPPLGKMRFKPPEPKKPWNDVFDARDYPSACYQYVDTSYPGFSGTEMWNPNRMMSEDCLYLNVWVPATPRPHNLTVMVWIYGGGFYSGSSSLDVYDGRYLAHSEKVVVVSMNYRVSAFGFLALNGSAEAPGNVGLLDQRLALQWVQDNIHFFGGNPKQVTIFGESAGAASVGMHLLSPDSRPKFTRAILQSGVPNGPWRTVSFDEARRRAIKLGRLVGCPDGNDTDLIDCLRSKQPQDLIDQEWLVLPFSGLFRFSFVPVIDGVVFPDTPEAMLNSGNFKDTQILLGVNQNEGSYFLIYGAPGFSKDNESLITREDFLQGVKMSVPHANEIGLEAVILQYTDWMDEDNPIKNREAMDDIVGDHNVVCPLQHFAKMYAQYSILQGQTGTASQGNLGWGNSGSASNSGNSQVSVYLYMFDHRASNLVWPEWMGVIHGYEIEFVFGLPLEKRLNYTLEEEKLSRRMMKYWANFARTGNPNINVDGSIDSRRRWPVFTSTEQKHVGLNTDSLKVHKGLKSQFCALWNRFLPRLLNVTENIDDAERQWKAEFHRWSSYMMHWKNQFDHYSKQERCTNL

| SMILES | inhibition [1] [%] | inhibition [2] [%] |
| --- | --- | --- |
| COc1cc2c(cc1O)CCN[C@H]2C | 10.8 | -4.77 |
| COC(=O)/C(=C1/OC(=O)C(c2ccccc2)=C1O)c1ccccc1 | 4.9 | 0.35 |
| CC1=C(/C=C/C(C)=C/C=C/C(C)=C/C(=O)O)C(C)(C)CCC1 | 9.3 | -0.7 |
| COc1cc2c(cc1OC)[C@H](C)NCC2 | -3.39 | -4.57 |
| COc1c2occc2c(OC)c2c(=O)cc(C)oc12 | 7.57 | 3.3 |
| C[C@]1(C(=O)O)CCC[C@]2(C)c3cc(O)ccc3CC[C@@H]12 | -4.47 | -2.99 |
| COC(=O)C1=CO[C@@H](C)[C@@H]2CN3CCc4c([nH]c5ccccc45)[C@@H]3C[C@H]12 | 22 | 89.1 |
| CC1(C)CCC[C@](C)([C@H]2CC[C@]3(C)[C@@H]2[C@H](O)C[C@@H]2[C@@]4(C)CC[C@H](O)C(C)(C)[C@@H]4[C@@H](O)C[C@]23C)O1 | 6.16 | 8.34 |
| CC[C@H]1CN2CCc3cc(OC)c(OC)cc3[C@@H]2C[C@@H]1C[C@H]1NCCc2cc(OC)c(OC)cc21 | 13.7 | 1.38 |
| CO[C@H]1[C@@H](O)[C@@H](C)O[C@H](O[C@H]2[C@H](Oc3cccc4c(O)c5c(=O)oc6ccc(C)c7c(=O)oc(c34)c5c67)O[C@H](C)[C@H](O)[C@@H]2O)[C@@H]1O | 17.5 | 7.94 |
| CC(=O)O[C@H]1CC[C@]2(C=O)[C@H]3CC[C@]4(C)[C@@H](C5=CC(=O)OC5)CC[C@]4(O)[C@@H]3CC[C@]2(O)C1 | -2.93 | -2.95 |
| CN1CCC[C@H]1c1cccnc1 | 15.6 | 1.2 |
| O=c1c(O[C@@H]2O[C@H](CO)[C@@H](O)[C@H](O)[C@H]2O)c(-c2ccc(O)c(O)c2)oc2cc(O)cc(O)c12 | 0.12 | 2.54 |
| C[C@@H]1[C@H](O)[C@@H](C)/C=C/C=C/C=C/C=C/C=C/C=C/C=C/[C@H](O[C@@H]2O[C@H](C)[C@@H](O)[C@H](N)[C@@H]2O)C[C@@H]2O[C@](O)(C[C@@H](O)C[C@@H](O)[C@H](O)CC[C@@H](O)C[C@@H](O)CC(=O)O[C@H]1C)C[C@H](O)[C@H]2C(=O)O | 8.91 | 11.9 |
| C[C@H]1CC[C@@H]2N(C1)C[C@H]1[C@@H]3C[C@H]4[C@@H](CC(=O)[C@H]5C[C@@H](O)CC[C@@]54C)[C@@H]3CC[C@H]1[C@]2(C)O | 24.9 | 6.5 |
| C[C@@H]1O[C@@H](OC[C@H]2O[C@@H](Oc3cc(O)c4c(c3)O[C@H](c3ccc(O)c(O)c3)CC4=O)[C@H](O)[C@@H](O)[C@@H]2O)[C@H](O)[C@H](O)[C@H]1O | 21.5 | 1.98 |
| COc1ccc2c3c([nH]c2c1)C(C)=NCC3 | 40.4 | 0.63 |
| COc1ccc2cc1Oc1ccc(cc1)C[C@H]1c3cc(c(OC)cc3CCN1C)Oc1c(OC)c(OC)cc3c1[C@H](C2)N(C)CC3 | 15.5 | -1.1 |
| COc1cc2c(c(OC)c1OC)-c1c(cc3c(c1OC)OCO3)C[C@H](C)[C@H](C)C2 | -4.27 | 12.7 |
| C[C@@H]1Cc2c(Cl)cc(C(=O)N[C@@H](Cc3ccccc3)C(=O)O)c(O)c2C(=O)O1 | -6.4 | 8.75 |
| COC(=O)C[C@](O)(CCC(C)(C)O)C(=O)O[C@@H]1C(OC)=C[C@]23CCCN2CCc2cc4c(cc2[C@H]13)OCO4 | -5.71 | 1.48 |
| CC(C)CCNC(=O)[C@H](CC(C)C)NC(=O)[C@H]1O[C@@H]1C(=O)O | -1.94 | 10.6 |
| C[C@H]([C@H](O)CCC(C)(C)O)[C@H]1CC[C@@]2(O)C3=CC(=O)[C@@H]4C[C@@H](O)[C@@H](O)C[C@]4(C)[C@H]3CC[C@]12C | -0.57 | -1.9 |
| CC1(C)CCC2=C(O1)c1ccccc1C(=O)C2=O | -2.91 | 11.2 |

| SMILES | inhibition [1] [%] | inhibition [2] [%] |
| --- | --- | --- |
| O=C1C[C@@H](c2ccccc2)Oc2cc(O)cc(O)c21 | 27.3 | 1.45 |
| COc1ccc(-c2cc(=O)c3c(OC)c(OC)c(OC)cc3o2)cc1OC | 29.6 | 17.1 |
| O=C(CCc1ccc(O)cc1)c1c(O)cc(O)cc1O[C@@H]1O[C@H](CO)[C@@H](O)[C@H](O)[C@H]1O | -6.94 | 5.38 |
| N[C@H]1CONC1=O | 1.18 | -5.13 |
| COc1c(O)cc2c(c1O)[C@@H]1O[C@H](CO)[C@@H](O)[C@H](O)[C@H]1OC2=O | 7.33 | -0.62 |
| COc1cc(-c2oc3cc(O)cc(O)c3c(=O)c2O[C@@H]2O[C@H](CO)[C@@H](O)[C@H](O)[C@H]2O)ccc1O | 30.6 | 1.08 |
| CC(C)=CCC/C(C)=C/CC/C(C)=C/CC/C(C)=C/C(=O)O | -5.57 | -2.05 |
| CN1CCc2cc(O)c(O)cc2C1Cc1ccc(O)c(O)c1 (centres undefined) | 28.1 | 24.1 |
| C=C1C(=O)O[C@@H]2C3O[C@]3(C)CC/C=C(\C)CC[C@@H]12 (some centres undefined) | -5.29 | 14 |
| O=C(/C=C/c1ccc(O)c(O)c1)O[C@H](Cc1ccc(O)c(O)c1)C(=O)O | 14.9 | -3.64 |
| CO[C@H](C)[C@](O)(C(=O)OCC1=CCN2CC[C@H](O)[C@@H]12)C(C)C | 21.3 | 1.48 |
| C=C(C)[C@@H]1CC[C@]2(CO)CC[C@]3(C)[C@H](CC[C@@H]4[C@@]5(C)CC[C@H](O)C(C)(C)[C@@H]5CC[C@]43C)[C@@H]12 | 7.09 | 0.47 |
| CC1=CC(=O)C(C(C)C)=CC1=O | 7.9 | -0.33 |
| CC1(C)CCC[C@](C)([C@H]2CC[C@]3(C)[C@@H]2[C@H](O)C[C@@H]2[C@@]4(C)CC[C@H](O)C(C)(C)[C@@H]4CC[C@]23C)O1 | 7.82 | 12.1 |
| CCN1C[C@]2(COC)CC[C@H](OC)[C@]34C5C[C@@H]6[C@@H](OC)C[C@@]7(OCO[C@@]7(C13)[C@@H](O)C24)C5[C@H]6OC (some centres undefined) | 23.4 | -6.6 |
| COc1ccc(-c2cc(=O)c3c(O)cc(O)cc3o2)cc1 | -1.38 | -2.17 |
| CN1[C@H]2C[C@H](OC(=O)[C@H](CO)c3ccccc3)C[C@@H]1[C@@H](O)C2 | 9.43 | 8.08 |
| COc1ccc(C[C@H]2NC[C@H](O)[C@H]2OC(C)=O)cc1 | -1.2 | -3.31 |
| C[n+]1cccc(C(=O)[O-])c1 | -1.47 | -5.02 |
| CO[C@H]1[C@H](O)[C@H](O[C@H]2CC[C@@]3(C=O)[C@H](CC[C@@H]4[C@@H]3CC[C@]3(C)[C@@H](C5=CC(=O)OC5)CC[C@]43O)C2)O[C@@H](C)[C@@H]1O | 4.45 | -1.96 |
| COC(=O)[C@H]1[C@H]2C[C@@H]3c4[nH]c5cc(OC)ccc5c4CCN3C[C@H]2C[C@@H](OC(=O)c2cc(OC)c(OC)c(OC)c2)[C@@H]1OC | 5.06 | 15.3 |
| C[C@H]1C/C=C/[C@H]2[C@@H]3O[C@]3(C)[C@@H](C)[C@H]3[C@H](Cc4ccccc4)NC(=O)[C@]32OC(=O)O/C=C/[C@@](C)(O)C1=O | 5.91 | 9.25 |
| C[C@H]1CC[C@@H]2[C@@H](C)[C@H]3[C@H](C[C@H]4[C@@H]5CC[C@H]6C[C@@H](O)CC[C@]6(C)[C@H]5CC[C@]34C)N2C1 | 5.43 | 41.9 |
